Laboratory results: the NIST ThermoML archive (doi:10.1021/je100707s)
“And” between values parts separate entries of the source, which are not always exact repeats. Identical values can stand only once.

Details: Gas, Bellows volumetry

F/C=C/C(F)(F)F [trans-1,3,3,3-tetrafluoropropene]
Details | mass density
310 K, 657 kPa | 34.36 kg/m3
310 K, 669 kPa | 35.06 kg/m3
310 K, 681 kPa | 35.86 kg/m3
310 K, 695 kPa | 36.78 kg/m3
320 K, 691 kPa | 34.42 kg/m3
320 K, 701 kPa | 35.05 kg/m3
320 K, 716 kPa | 35.92 kg/m3
320 K, 730 kPa | 36.8 kg/m3
320 K, 743 kPa | 37.6 kg/m3
320 K, 759 kPa | 38.61 kg/m3
320 K, 775 kPa | 39.62 kg/m3
320 K, 791 kPa | 40.64 kg/m3
320 K, 808 kPa | 41.76 kg/m3
320 K, 823 kPa | 42.77 kg/m3
320 K, 837 kPa | 43.67 kg/m3
320 K, 851 kPa | 44.36 kg/m3
320 K, 866 kPa | 45.45 kg/m3
320 K, 881 kPa | 46.49 kg/m3
320 K, 899 kPa | 47.75 kg/m3
320 K, 910 kPa | 48.63 kg/m3
330 K, 718 kPa | 34.26 kg/m3
330 K, 731 kPa | 34.99 kg/m3
330 K, 746 kPa | 35.85 kg/m3
330 K, 762 kPa | 36.76 kg/m3
330 K, 778 kPa | 37.66 kg/m3
330 K, 792 kPa | 38.48 kg/m3
330 K, 810 kPa | 39.52 kg/m3
330 K, 828 kPa | 40.65 kg/m3
330 K, 844 kPa | 41.61 kg/m3
330 K, 866 kPa | 42.95 kg/m3
330 K, 893 kPa | 44.43 kg/m3
330 K, 908 kPa | 45.39 kg/m3
330 K, 927 kPa | 46.54 kg/m3
330 K, 943 kPa | 47.55 kg/m3
330 K, 961 kPa | 48.73 kg/m3
330 K, 981 kPa | 50.03 kg/m3
330 K, 1001 kPa | 51.36 kg/m3
330 K, 1020 kPa | 52.67 kg/m3
330 K, 1041 kPa | 54.12 kg/m3
330 K, 1063 kPa | 55.64 kg/m3
330 K, 1075 kPa | 56.44 kg/m3
330 K, 1097 kPa | 57.98 kg/m3
330 K, 1113 kPa | 59.21 kg/m3
330 K, 1139 kPa | 61.03 kg/m3
330 K, 1165 kPa | 63.02 kg/m3
340 K, 747 kPa | 34.24 kg/m3
340 K, 762 kPa | 35.03 kg/m3
340 K, 778 kPa | 35.89 kg/m3
340 K, 794 kPa | 36.75 kg/m3
340 K, 810 kPa | 37.63 kg/m3
340 K, 827 kPa | 38.54 kg/m3
340 K, 845 kPa | 39.55 kg/m3
340 K, 864 kPa | 40.55 kg/m3
340 K, 882 kPa | 41.66 kg/m3
340 K, 903 kPa | 42.85 kg/m3
340 K, 921 kPa | 43.82 kg/m3
340 K, 933 kPa | 44.41 kg/m3
340 K, 953 kPa | 45.51 kg/m3
340 K, 971 kPa | 46.56 kg/m3
340 K, 989 kPa | 47.62 kg/m3
340 K, 1008 kPa | 48.82 kg/m3
340 K, 1030 kPa | 50.12 kg/m3
340 K, 1049 kPa | 51.33 kg/m3
340 K, 1069 kPa | 52.63 kg/m3
340 K, 1090 kPa | 53.99 kg/m3
340 K, 1117 kPa | 55.66 kg/m3
340 K, 1134 kPa | 56.71 kg/m3
340 K, 1154 kPa | 58.04 kg/m3
340 K, 1175 kPa | 59.4 kg/m3
340 K, 1196 kPa | 60.76 kg/m3
340 K, 1218 kPa | 62.25 kg/m3
340 K, 1238 kPa | 63.68 kg/m3
340 K, 1262 kPa | 65.39 kg/m3
340 K, 1284 kPa | 67.01 kg/m3
340 K, 1305 kPa | 68.59 kg/m3
340 K, 1308 kPa | 68.83 kg/m3
340 K, 1331 kPa | 70.6 kg/m3 and 70.59 kg/m3
340 K, 1354 kPa | 72.27 kg/m3
340 K, 1356 kPa | 72.51 kg/m3
340 K, 1378 kPa | 74.19 kg/m3
340 K, 1384 kPa | 74.55 kg/m3
340 K, 1398 kPa | 75.77 kg/m3
340 K, 1420 kPa | 77.51 kg/m3
340 K, 1441 kPa | 79.28 kg/m3
340 K, 1465 kPa | 81.46 kg/m3
340 K, 1482 kPa | 83.02 kg/m3
340 K, 1490 kPa | 83.71 kg/m3
350 K, 777 kPa | 34.25 kg/m3
350 K, 794 kPa | 35.1 kg/m3
350 K, 809 kPa | 35.85 kg/m3
350 K, 824 kPa | 36.66 kg/m3
350 K, 841 kPa | 37.55 kg/m3
350 K, 861 kPa | 38.6 kg/m3
350 K, 880 kPa | 39.57 kg/m3
350 K, 899 kPa | 40.59 kg/m3
350 K, 921 kPa | 41.8 kg/m3
350 K, 943 kPa | 42.97 kg/m3
350 K, 974 kPa | 44.44 kg/m3
350 K, 992 kPa | 45.42 kg/m3
350 K, 1009 kPa | 46.4 kg/m3
350 K, 1033 kPa | 47.69 kg/m3
350 K, 1050 kPa | 48.68 kg/m3
350 K, 1073 kPa | 49.96 kg/m3
350 K, 1081 kPa | 50.42 kg/m3
350 K, 1097 kPa | 51.34 kg/m3
350 K, 1118 kPa | 52.57 kg/m3
350 K, 1146 kPa | 54.28 kg/m3
350 K, 1166 kPa | 55.47 kg/m3
350 K, 1184 kPa | 56.54 kg/m3
350 K, 1212 kPa | 58.14 kg/m3
350 K, 1228 kPa | 59.18 kg/m3
350 K, 1253 kPa | 60.74 kg/m3
350 K, 1281 kPa | 62.46 kg/m3
350 K, 1299 kPa | 63.7 kg/m3
350 K, 1325 kPa | 65.31 kg/m3
350 K, 1352 kPa | 67.13 kg/m3
350 K, 1374 kPa | 68.68 kg/m3
350 K, 1376 kPa | 68.87 kg/m3
350 K, 1400 kPa | 70.45 kg/m3
350 K, 1403 kPa | 70.69 kg/m3
350 K, 1422 kPa | 72.01 kg/m3
350 K, 1434 kPa | 72.82 kg/m3
350 K, 1451 kPa | 74.02 kg/m3
350 K, 1460 kPa | 74.47 kg/m3
350 K, 1474 kPa | 75.65 kg/m3
350 K, 1499 kPa | 77.45 kg/m3
350 K, 1526 kPa | 79.54 kg/m3
350 K, 1552 kPa | 81.57 kg/m3
350 K, 1580 kPa | 83.73 kg/m3
350 K, 1611 kPa | 86.28 kg/m3
350 K, 1645 kPa | 88.62 kg/m3
350 K, 1667 kPa | 90.44 kg/m3
350 K, 1692 kPa | 92.58 kg/m3
350 K, 1722 kPa | 95.16 kg/m3
350 K, 1748 kPa | 97.5 kg/m3
350 K, 1773 kPa | 99.83 kg/m3
350 K, 1798 kPa | 102.24 kg/m3
350 K, 1822 kPa | 104.65 kg/m3
350 K, 1850 kPa | 107.61 kg/m3
350 K, 1869 kPa | 109.92 kg/m3
360 K, 806 kPa | 34.26 kg/m3
360 K, 822 kPa | 35.02 kg/m3
360 K, 838 kPa | 35.83 kg/m3
360 K, 858 kPa | 36.81 kg/m3
360 K, 872 kPa | 37.5 kg/m3
360 K, 893 kPa | 38.54 kg/m3
360 K, 914 kPa | 39.59 kg/m3
360 K, 934 kPa | 40.62 kg/m3
360 K, 957 kPa | 41.79 kg/m3
360 K, 980 kPa | 42.97 kg/m3
360 K, 996 kPa | 43.76 kg/m3
360 K, 1013 kPa | 44.41 kg/m3
360 K, 1032 kPa | 45.38 kg/m3
360 K, 1053 kPa | 46.47 kg/m3
360 K, 1076 kPa | 47.64 kg/m3
360 K, 1093 kPa | 48.62 kg/m3
360 K, 1123 kPa | 50.21 kg/m3
360 K, 1142 kPa | 51.25 kg/m3
360 K, 1164 kPa | 52.52 kg/m3
360 K, 1190 kPa | 53.97 kg/m3
360 K, 1217 kPa | 55.45 kg/m3
360 K, 1246 kPa | 56.97 kg/m3
360 K, 1249 kPa | 57.15 kg/m3
360 K, 1263 kPa | 57.94 kg/m3
360 K, 1285 kPa | 59.28 kg/m3
360 K, 1310 kPa | 60.71 kg/m3
360 K, 1335 kPa | 62.17 kg/m3
360 K, 1359 kPa | 63.66 kg/m3
360 K, 1386 kPa | 65.23 kg/m3
360 K, 1414 kPa | 66.98 kg/m3
360 K, 1438 kPa | 68.45 kg/m3
360 K, 1441 kPa | 68.77 kg/m3
360 K, 1466 kPa | 70.29 kg/m3 and 70.3 kg/m3
360 K, 1493 kPa | 72.04 kg/m3
360 K, 1502 kPa | 72.6 kg/m3
360 K, 1523 kPa | 73.94 kg/m3
360 K, 1535 kPa | 74.54 kg/m3
360 K, 1545 kPa | 75.43 kg/m3
360 K, 1580 kPa | 77.76 kg/m3
360 K, 1607 kPa | 79.57 kg/m3
360 K, 1634 kPa | 81.53 kg/m3
360 K, 1665 kPa | 83.71 kg/m3
360 K, 1695 kPa | 85.89 kg/m3
360 K, 1725 kPa | 87.95 kg/m3
360 K, 1737 kPa | 88.54 kg/m3
360 K, 1760 kPa | 90.28 kg/m3
360 K, 1787 kPa | 92.36 kg/m3
360 K, 1815 kPa | 94.55 kg/m3
360 K, 1850 kPa | 97.28 kg/m3
360 K, 1886 kPa | 100.24 kg/m3
360 K, 1926 kPa | 103.58 kg/m3
360 K, 1936 kPa | 104.54 kg/m3
360 K, 1964 kPa | 107.1 kg/m3
360 K, 1999 kPa | 110.25 kg/m3
360 K, 2157 kPa | 125.99 kg/m3
360 K, 2180 kPa | 128.5 kg/m3
360 K, 2212 kPa | 132.17 kg/m3
360 K, 2224 kPa | 133.7 kg/m3
360 K, 2247 kPa | 136.47 kg/m3
360 K, 2279 kPa | 140.52 kg/m3
360 K, 2287 kPa | 141.76 kg/m3
360 K, 2300 kPa | 143.52 kg/m3
